In general, Ki refers to the dissociation constant of the complex between target and ligand, obtained from inhibition or displacement. A low value points to tighter binding.

Two compounds from patent US20110178062A1, “INDOLE AND BENZOTHIOPHENE COMPOUNDS AS MODULATORS OF THE HISTAMINE H3 RECEPTOR” (priority 2007, published 2011) can be followed below.

The target of assay [1] is T1, cloned human H3 receptors, stably expressed in SK-N-MC cells (Homo sapiens, UniProt Q9Y5N1).
T1 construct: expressed in transfected cells; host or cells: SK-N-MC cells
The experiment in a line: H3 Receptor Binding (Human). Particulars: average of the results obtained. The method, then: Binding of compounds to the cloned human H3 receptors, stably expressed in SK-N-MC cells, was performed as described by Barbier, A. J. et al. (Br. J. Pharmacol. 2004, 143(5), 649-661). Data for compounds tested in this assay are presented in Table 1 as an average of the results obtained.

The target of assay [2] is T2, human H3 receptor (Homo sapiens, UniProt Q9Y5N1).
T2 construct: expressed in transfected cells; host or cells: SK-N-MC cells
Put plainly: Cyclic AMP Accumulation, SK-N-MC reporter cells (human H3). The format is cell-based. Conditions: SK-N-MC cells expressing reporter construct and human H3 receptor; read-out: Human pA2 (converted). An excerpt:
(§1) Sublines of SK-N-MC cells were created that expressed a reporter construct and either the human or rat H3 receptor. The pA2 values were obtained as described by Barbier et al. (2004). Data for compounds tested in these assays are presented in Table 3, as an average of the results obtained (NT=not tested).

Assay [3] addresses T3, Rat H3 (Rattus norvegicus, UniProt Q9QYN8). Put plainly: Cyclic AMP Accumulation, SK-N-MC reporter cells (rat H3). The format is cell-based. The arrangement: expressed in transfected cells; host or cells: SK-N-MC cells (subline with reporter construct). Particulars: SK-N-MC cells expressing reporter construct and rat H3 receptor; read-out: Rat pA2 (converted).
Source text: as §1
Target sequence in this assay (Q9QYN8 whole entry): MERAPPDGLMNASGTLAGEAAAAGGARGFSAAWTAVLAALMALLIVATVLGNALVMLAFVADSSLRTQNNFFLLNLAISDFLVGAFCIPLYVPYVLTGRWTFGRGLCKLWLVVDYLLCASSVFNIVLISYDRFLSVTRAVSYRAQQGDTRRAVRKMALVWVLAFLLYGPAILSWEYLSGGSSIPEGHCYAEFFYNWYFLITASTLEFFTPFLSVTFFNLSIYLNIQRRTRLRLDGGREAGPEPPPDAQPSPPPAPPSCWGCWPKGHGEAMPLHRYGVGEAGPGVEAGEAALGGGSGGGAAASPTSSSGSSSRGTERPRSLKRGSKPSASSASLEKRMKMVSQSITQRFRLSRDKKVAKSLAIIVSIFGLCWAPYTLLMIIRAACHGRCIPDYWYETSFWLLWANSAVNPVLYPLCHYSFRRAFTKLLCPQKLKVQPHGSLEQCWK

Assay [4] deals with T3, Rat H3. Put plainly: H3 Receptor Binding (Rat), rat brain membranes, N-[3H]-α-methylhistamine. Particulars: rat brain without cerebellum; 0.8 nM N-[3H]-α-methylhistamine; average of results. The method, then:
A rat brain without cerebellum (Zivic Laboratories Inc., Pittsburgh, Pa.) was homogenized in 50 mM Tris-HCl/5 mM EDTA and centrifuged at 1,000 rpm for 5 min. The supernatant was removed and recentrifuged at 15,000 rpm for 30 min. Pellets were rehomogenized in 50 mM Tris/5 mM EDTA (pH 7.4). Membranes were incubated with 0.8 nM N—[^3H]-α-methylhistamine plus/minus test compounds for 60 min at 25° C. and harvested by rapid filtration over GF/C glass fiber filters (pretreated with 0.3% polyethylenimine) followed by four washes with buffer. Nonspecific binding was defined in the presence of 100 μM histamine. Inhibitory concentration (responsible for 50% inhibition of maximal effect, IC50) values were determined by a single site curve-fitting program (GraphPad, San Diego, Calif.) and converted to Ki values based on a N—[^3H]-α-methylhistamine dissociation constant (Kd) of 0.8 nM. Data for compounds tested in this assay are presented in Table 2 as an average of the results obtained.
Target sequence in this assay (Q9QYN8 1-397 isoform Q9QYN8-3): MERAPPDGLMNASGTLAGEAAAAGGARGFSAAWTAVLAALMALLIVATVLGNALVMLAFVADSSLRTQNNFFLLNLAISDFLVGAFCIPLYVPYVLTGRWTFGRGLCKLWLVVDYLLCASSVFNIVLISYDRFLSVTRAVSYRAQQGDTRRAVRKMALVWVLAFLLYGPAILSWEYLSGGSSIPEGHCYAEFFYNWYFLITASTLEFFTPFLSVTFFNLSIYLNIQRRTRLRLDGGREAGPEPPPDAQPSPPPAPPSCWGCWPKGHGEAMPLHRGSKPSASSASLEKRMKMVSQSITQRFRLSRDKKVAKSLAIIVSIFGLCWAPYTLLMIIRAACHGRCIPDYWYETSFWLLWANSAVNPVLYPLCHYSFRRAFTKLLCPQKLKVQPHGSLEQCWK

T1 sequence (Q9Y5N1 whole entry): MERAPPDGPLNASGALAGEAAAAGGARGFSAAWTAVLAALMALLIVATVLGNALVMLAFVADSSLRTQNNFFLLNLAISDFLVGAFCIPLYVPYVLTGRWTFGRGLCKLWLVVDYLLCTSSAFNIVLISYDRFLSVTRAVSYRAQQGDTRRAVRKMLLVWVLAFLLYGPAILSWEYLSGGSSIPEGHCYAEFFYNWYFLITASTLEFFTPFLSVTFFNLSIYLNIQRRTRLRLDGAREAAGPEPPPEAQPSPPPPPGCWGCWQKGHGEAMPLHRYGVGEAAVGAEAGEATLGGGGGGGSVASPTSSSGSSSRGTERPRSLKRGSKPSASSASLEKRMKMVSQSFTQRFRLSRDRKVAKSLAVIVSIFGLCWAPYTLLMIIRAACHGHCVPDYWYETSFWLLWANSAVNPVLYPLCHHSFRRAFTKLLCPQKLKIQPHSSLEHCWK
T2 sequence (Q9Y5N1 whole entry): as above

In turn, `O=C(c1ccc2c(CN3CCN(C4CCCC4)CC3)c[nH]c2c1)N1CCCCCC1` [Example 91, Azepan-1-yl-[3-(4-cyclopentyl-piperazin-1-ylmethyl)-1H-indol-6-yl]-methanone] displayed an inhibitory constant (Ki) in assay [1] of 26 nM. Further, the values for the Kb in assay [2] and in assay [3] were 46.8 nM and 67.6 nM, respectively.
Consider `CC(C)N1CCCN(C(=O)c2ccc3c(CN4CCOCC4)c[nH]c3c2)CC1` [Example 7, (4-Isopropyl-[1,4]diazepan-1-yl)-(3-morpholin-4-ylmethyl-1H-indol-6-yl)-methanone], for which the inhibition constant Ki in assay [1] was determined as 1 nM; in assay [4], 2 nM. The Kb in assay [3] was 2 nM.
